The values below are quoted from earlier work in US20050158775A1, “Novel plamid DNA comprising reoprter gene DNA and use of the same” (priority 1997, published 2005).

The subject of the data set is PPAR γ. As to conditions: at a concentration of 10 μM or less; cited from earlier work.

On to `CCCCC[C@H](O)/C=C/[C@@H]1[C@H]2C/C(=C/CCCC(=O)O)C[C@H]2C[C@H]1O` [carbacyclin], for which the “PPAR γ agonist activity” value is on record as “does not show PPAR γ agonist activity”.
